Results taken from ChEMBL document CHEMBL2086274, “Synthesis, biological evaluation, and molecular docking of N-{3-[3-(9-methyl-9H-carbazol-3-yl)-acryloyl]-phenyl}-benzamide/amide derivatives as xanthine oxidase and tyrosinase inhibitors” (Bioorg Med Chem, 2012).

What was measured:
Tyrosinase [1] = biological target: T1, Tyrosinase (Agaricus bisporus, UniProt O42713)
T1 sequence (O42713 whole entry): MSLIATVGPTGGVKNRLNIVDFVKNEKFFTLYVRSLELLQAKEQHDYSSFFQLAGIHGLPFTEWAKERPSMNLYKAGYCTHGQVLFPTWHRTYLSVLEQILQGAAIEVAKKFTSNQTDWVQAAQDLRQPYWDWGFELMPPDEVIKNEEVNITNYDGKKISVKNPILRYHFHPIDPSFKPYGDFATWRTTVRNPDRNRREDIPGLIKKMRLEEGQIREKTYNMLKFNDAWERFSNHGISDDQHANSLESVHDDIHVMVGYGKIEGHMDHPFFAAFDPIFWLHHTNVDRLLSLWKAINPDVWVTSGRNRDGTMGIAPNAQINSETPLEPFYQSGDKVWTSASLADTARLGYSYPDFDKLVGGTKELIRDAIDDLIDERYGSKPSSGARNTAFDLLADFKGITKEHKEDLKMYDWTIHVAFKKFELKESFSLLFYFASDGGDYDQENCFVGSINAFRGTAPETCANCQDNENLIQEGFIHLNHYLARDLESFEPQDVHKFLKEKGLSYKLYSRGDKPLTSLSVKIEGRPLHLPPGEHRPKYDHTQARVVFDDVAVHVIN
Description: Inhibition of mushroom tyrosinase using L-tyrosine as substrate after 5 mins by UV-spectrophotometric analysis

[2] = biological target: Xanthine dehydrogenase/oxidase (Bos taurus, UniProt P80457)
Sequence of Xanthine dehydrogenase/oxidase (P80457 whole entry): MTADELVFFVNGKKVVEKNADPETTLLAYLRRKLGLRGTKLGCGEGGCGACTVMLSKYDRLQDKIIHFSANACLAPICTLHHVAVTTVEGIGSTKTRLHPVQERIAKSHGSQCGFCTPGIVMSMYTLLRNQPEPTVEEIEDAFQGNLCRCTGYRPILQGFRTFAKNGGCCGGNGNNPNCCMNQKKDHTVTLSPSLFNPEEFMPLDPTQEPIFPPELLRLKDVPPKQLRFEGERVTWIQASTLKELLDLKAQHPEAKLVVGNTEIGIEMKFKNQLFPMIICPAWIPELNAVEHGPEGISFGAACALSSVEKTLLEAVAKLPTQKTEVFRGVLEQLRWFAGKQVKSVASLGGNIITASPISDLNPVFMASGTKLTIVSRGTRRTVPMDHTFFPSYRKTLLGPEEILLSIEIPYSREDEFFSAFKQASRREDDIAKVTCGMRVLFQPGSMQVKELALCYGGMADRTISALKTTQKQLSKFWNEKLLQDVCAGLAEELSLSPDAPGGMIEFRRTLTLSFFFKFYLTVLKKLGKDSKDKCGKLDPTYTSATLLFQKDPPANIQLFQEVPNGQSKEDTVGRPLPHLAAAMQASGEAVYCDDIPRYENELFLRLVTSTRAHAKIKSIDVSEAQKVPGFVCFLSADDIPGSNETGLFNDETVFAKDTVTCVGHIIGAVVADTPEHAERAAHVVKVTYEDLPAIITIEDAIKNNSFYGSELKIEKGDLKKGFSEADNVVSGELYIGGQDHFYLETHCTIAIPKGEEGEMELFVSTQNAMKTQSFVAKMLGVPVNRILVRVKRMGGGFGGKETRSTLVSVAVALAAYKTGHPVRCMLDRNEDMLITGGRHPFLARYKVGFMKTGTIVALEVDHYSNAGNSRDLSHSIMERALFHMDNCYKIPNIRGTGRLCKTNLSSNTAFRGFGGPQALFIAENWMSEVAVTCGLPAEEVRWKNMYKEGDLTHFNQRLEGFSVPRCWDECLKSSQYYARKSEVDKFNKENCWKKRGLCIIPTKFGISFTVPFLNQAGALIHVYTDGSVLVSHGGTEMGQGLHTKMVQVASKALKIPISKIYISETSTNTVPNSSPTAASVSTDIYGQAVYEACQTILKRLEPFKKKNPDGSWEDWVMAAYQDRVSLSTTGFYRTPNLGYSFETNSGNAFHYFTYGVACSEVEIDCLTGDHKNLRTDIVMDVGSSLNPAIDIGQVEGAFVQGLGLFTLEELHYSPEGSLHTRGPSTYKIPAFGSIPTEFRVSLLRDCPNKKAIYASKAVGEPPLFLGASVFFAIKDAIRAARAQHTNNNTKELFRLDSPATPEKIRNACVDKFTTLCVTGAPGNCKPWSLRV
Description: Inhibition of bovine milk XO assessed as decrease in uric acid formation after 5 mins by UV-spectrophotometric analysis

[3] = biological target: T2, Tyrosinase (Mus musculus) (UniProt P11344); experiment: Inhibition of tyrosinase in mouse B16F10 cells assessed as reduction of melanin production at 20 ug/ml after 72 hrs; type: cell-based; details: B16-F10
T2 sequence (whole entry): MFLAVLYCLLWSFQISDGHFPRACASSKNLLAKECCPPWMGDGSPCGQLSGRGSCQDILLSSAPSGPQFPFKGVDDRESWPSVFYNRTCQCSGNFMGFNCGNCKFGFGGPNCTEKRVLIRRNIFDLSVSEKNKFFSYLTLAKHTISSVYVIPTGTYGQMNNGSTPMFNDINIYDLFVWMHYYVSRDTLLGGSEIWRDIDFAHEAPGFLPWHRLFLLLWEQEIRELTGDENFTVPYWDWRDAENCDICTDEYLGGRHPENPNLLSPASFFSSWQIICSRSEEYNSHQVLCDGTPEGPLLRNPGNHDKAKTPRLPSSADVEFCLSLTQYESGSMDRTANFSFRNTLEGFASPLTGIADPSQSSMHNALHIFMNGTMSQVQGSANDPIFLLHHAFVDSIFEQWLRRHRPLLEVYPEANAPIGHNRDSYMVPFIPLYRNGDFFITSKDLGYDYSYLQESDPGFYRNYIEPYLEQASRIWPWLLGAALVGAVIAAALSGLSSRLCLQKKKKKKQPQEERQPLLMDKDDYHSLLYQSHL

[4] = Cytotoxicity against mouse B16F10 cells assessed as cell viability at 20 ug/ml after 76 hrs by MTT assay; type: cell-based, B16-F10; details: read-out: Activity
Tyrosinase [5] = biological target: T1, Tyrosinase; remark: listed apart in the source
Description: Inhibition of mushroom tyrosinase using L-DOPA as substrate after 5 mins by UV-spectrophotometric analysis

Tyrosinase [6] = biological target: T1, Tyrosinase; experiment: Competitive inhibition of mushroom tyrosinase using L-DOPA as substrate after 5 mins by Lineweaver-Burk plot analysis

IC50 (Tyrosinase [1]) | IC50 [2] | inhibition [3] | IC50 (Tyrosinase [5]) | Ki (Tyrosinase [6]) | SMILES | viability at 76 h, 20 ug/ml [4]
85.2 µM | 5.1 µM | 15.9% | 78.2 µM | – | Cn1c2ccccc2c2cc(/C=C/C(=O)c3cccc(NC(=O)/C=C/c4ccccc4)c3)ccc21 | 81%
48.1 µM | 4.4 µM | 29.4% | 56.5 µM | – | Cn1c2ccccc2c2cc(/C=C/C(=O)c3cccc(NC(=O)c4cccc(Cl)c4)c3)ccc21 | 80.5%
18.2 µM | 79.5 µM | 40.5% | 15.2 µM | – | Cn1c2ccccc2c2cc(/C=C/C(=O)c3cccc(NC(=O)c4ccccc4F)c3)ccc21 | 84.5%
15.1 µM | 25.8 µM | 24% | 16.5 µM | – | Cn1c2ccccc2c2cc(/C=C/C(=O)c3cccc(NC(=O)c4ccc(F)cc4)c3)ccc21 | 88.7%
15.1 µM | 5.3 µM | 25.4% | 15.2 µM | – | Cc1ccc(C(=O)Nc2cccc(C(=O)/C=C/c3ccc4c(c3)c3ccccc3n4C)c2)cc1 | 82.7%
35.2 µM | 4.5 µM | 20.6% | 42 µM | – | Cn1c2ccccc2c2cc(/C=C/C(=O)c3cccc(NC(=O)c4cccc(F)c4)c3)ccc21 | 83.9%
> 100 µM | > 100 µM | 8.1% | > 100 µM | – | Cc1ccccc1C(=O)Nc1cccc(C(=O)/C=C/c2ccc3c(c2)c2ccccc2n3C)c1 | 60.9%
48.2 µM | 48.5 µM | 20.1% | 50.5 µM | – | Cn1c2ccccc2c2cc(/C=C/C(=O)c3cccc(N)c3)ccc21 | 76.4%
46.5 µM | > 100 µM | 10.7% | 60.3 µM | – | Cn1c2ccccc2c2cc(/C=C/C(=O)c3cccc(NC(=O)c4ccco4)c3)ccc21 | 86.6%
80.2 µM | 4.3 µM | 30% | 74.5 µM | – | Cn1c2ccccc2c2cc(/C=C/C(=O)c3cccc(NC(=O)C4CC4)c3)ccc21 | 79.5%
> 100 µM | 88.2 µM | 10.2% | > 100 µM | – | Cn1c2ccccc2c2cc(/C=C/C(=O)c3cccc(NC(=O)c4cccc(Br)c4)c3)ccc21 | 78.9%
35.2 µM | 20.7 µM | 21.7% | 29.3 µM | – | Cc1cccc(C(=O)Nc2cccc(C(=O)/C=C/c3ccc4c(c3)c3ccccc3n4C)c2)c1 | 83.6%
65.2 µM | 5.1 µM | 30.1% | 75 µM | – | Cn1c2ccccc2c2cc(/C=C/C(=O)c3cccc(NC(=O)c4cccc(C(F)(F)F)c4)c3)ccc21 | 80.1%
> 100 µM | 57.1 µM | 11.6% | > 100 µM | – | Cn1c2ccccc2c2cc(/C=C/C(=O)c3cccc(NC(=O)c4ccc(C(C)(C)C)cc4)c3)ccc21 | 84%
> 100 µM | 30.3 µM | 9.7% | > 100 µM | – | Cn1c2ccccc2c2cc(/C=C/C(=O)c3cccc(NC(=O)c4ccccc4Cl)c3)ccc21 | 72%
80.2 µM | > 100 µM | 15.6% | 77.5 µM | – | CC(=O)Nc1cccc(C(=O)/C=C/c2ccc3c(c2)c2ccccc2n3C)c1 | 80.6%
14 µM | 42.7 µM | 42.5% | 15.1 µM | 11.8 µM | Cn1c2ccccc2c2cc(/C=C/C(=O)c3cccc(NC(=O)c4ccccc4)c3)ccc21 | 86.7%
17.5 µM | 5.6 µM | 36.1% | 15.1 µM | – | Cn1c2ccccc2c2cc(/C=C/C(=O)c3cccc(NC(=O)c4ccc(Cl)cc4)c3)ccc21 | 81.1%
62.4 µM | > 100 µM | 12.8% | 71.9 µM | – | Cn1c2ccccc2c2cc(/C=C/C(=O)c3cccc(NC(=O)c4cccs4)c3)ccc21 | 82.1%
